Test results taken from ChEMBL document CHEMBL1201862, “PubChem BioAssay data set” (2004).
Activity calls are given as the source filed them.

Experiments:
[1] = viability of HCT116 lacking mutant beta-catenin – cell-based, human colon tumor, dose response (AID 1045); format: functional;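 further: HCT116 colon tumor cells with beta catenin knocked out; cells exposed to compound for 60 hours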
[2] = HGIII-sPLA2 enzyme inhibition potency – biochemical, QFRET, IC50, dose response (AID 743457);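 further: green fluorescence rise as the enzyme cleaves BODIPY PC-A2 in liposomes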
[3] = viability of PTEN-deleted HCT116 cells – cell-based, HCT116 PTEN knockout, dose response (AID 1047); format: functional;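 further: HCT116 colon tumor cells with PTEN knocked out; cells exposed to compound for 60 hours before readout; potency for loss of cell viability measured by luminescence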
[4] = biological target: Albumin (Bos taurus, UniProt P02769); test: Counterscreen for inhibitors of T-cell receptor (TCR)-CD3 interaction: Fluorescence-based biochemical high throughput dose response assay to identify inhibitors of T-cell receptor (TCR)-CD3 interaction using a TAMRA-labeled BSA probe.; format: functional
Chain of Albumin (P02769 whole entry): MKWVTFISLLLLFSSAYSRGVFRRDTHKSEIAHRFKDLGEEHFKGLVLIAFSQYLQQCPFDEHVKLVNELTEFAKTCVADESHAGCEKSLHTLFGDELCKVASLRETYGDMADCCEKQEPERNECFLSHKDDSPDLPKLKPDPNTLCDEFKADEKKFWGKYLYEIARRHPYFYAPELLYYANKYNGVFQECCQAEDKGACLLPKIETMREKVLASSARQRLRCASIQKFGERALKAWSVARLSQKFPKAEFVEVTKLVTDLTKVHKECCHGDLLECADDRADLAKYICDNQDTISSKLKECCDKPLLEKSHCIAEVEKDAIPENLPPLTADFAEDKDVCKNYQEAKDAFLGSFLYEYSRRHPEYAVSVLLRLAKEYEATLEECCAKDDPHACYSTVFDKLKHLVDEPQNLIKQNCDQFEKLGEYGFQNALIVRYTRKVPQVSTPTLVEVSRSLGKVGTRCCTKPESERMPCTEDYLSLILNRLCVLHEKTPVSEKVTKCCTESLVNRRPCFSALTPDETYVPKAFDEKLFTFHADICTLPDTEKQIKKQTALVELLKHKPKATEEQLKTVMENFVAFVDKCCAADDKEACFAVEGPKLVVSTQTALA

[5] = biological target: T1, Streptokinase A (Streptococcus pyogenes serotype M1, UniProt P10520); test: viability-normalized secreted streptokinase activity reduction – plasminogen activation absorbance, OD405, dose response (AID 1914); format: functional, Streptococcus pyogenes M1 GAS;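 further: secreted streptokinase activity via plasminogen activation per viability signal from cell pellet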
T1 sequence (P10520 whole entry): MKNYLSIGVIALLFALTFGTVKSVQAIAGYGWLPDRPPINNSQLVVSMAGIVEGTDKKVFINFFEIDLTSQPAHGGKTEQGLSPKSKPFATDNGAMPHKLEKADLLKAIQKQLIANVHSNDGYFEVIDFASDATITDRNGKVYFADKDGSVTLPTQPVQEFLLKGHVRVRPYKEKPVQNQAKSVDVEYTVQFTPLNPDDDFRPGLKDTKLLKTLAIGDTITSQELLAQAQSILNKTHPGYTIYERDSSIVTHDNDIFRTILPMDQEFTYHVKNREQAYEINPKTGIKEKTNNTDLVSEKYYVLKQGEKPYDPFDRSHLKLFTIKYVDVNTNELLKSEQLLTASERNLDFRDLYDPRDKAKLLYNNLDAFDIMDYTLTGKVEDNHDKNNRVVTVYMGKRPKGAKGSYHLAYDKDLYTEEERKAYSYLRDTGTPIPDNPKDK

[6] = system: Streptococcus; test: GAS UMAA2166 growth inhibition – luminescence, BacTiterGlo, counter-screen for streptokinase expression inhibitor project, dose response (AID 1915); format: functional, organism-based;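 further: potency for reduction of bacterial viability or growth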
[7] = system: Streptococcus sp. 'group A'; test: Streptococcus pyogenes SK(-)GAS viability under kanamycin – luminescence, BacTiterGlo, confirmation, counter-screen for streptokinase expression inhibitor project, dose response (AID 1900); format: functional, organism-based
[8] = biological target: T2, fMet-Leu-Phe receptor (Homo sapiens, UniProt P21462); test: formyl peptide receptor binders – dose response (AID 519); format: functional
T2 sequence (P21462 whole entry): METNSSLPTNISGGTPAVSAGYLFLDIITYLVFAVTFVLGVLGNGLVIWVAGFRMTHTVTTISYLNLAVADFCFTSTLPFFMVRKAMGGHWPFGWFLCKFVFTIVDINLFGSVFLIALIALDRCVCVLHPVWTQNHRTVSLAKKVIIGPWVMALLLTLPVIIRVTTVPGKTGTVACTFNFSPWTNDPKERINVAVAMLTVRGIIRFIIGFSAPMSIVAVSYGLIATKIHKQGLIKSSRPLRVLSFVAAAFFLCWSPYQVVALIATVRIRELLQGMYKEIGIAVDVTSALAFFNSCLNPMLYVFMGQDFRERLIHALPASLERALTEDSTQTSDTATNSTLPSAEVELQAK

[9] = biological target: Paired box protein Pax-8 (Homo sapiens, UniProt Q06710); test: PAX8 transcriptional activity inhibition in RMG-I – RMG-I cells, luciferase, cherry-pick, dose response (AID 687027); format: functional, cell-based;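 further: luciferase reporter driven by Pax8 target thyroperoxidase promoter measured by SteadyGlo luminescence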
Chain of Paired box protein Pax-8 (Q06710 whole entry): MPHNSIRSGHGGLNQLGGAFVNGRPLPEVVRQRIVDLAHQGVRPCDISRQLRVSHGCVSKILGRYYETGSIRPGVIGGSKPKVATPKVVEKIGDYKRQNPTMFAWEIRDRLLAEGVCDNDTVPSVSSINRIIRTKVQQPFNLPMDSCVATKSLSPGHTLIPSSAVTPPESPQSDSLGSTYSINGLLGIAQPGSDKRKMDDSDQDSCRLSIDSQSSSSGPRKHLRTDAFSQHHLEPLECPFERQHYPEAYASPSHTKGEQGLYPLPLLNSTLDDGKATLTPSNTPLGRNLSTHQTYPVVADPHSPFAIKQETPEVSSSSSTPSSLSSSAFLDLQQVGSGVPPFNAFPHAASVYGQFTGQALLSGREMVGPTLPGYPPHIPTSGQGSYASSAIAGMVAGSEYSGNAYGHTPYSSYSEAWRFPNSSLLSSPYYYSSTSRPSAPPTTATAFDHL

[10] = IGROV1 cell killing – plate reader, dry powder samples, PAX8 inhibitor project, dose response (AID 743043); format: functional, cell-based; settings: IGROV-1
[11] = OVCAR-3 cell viability loss – plate reader, dry powder samples, PAX8 inhibitor project, dose response (AID 743044); format: functional, cell-based
[12] = biological target: Genome polyprotein (dengue virus type 2, UniProt P29990); test: flavivirus cap methylation enzyme inhibition – biochemical, confirmation dose response, primary screen (AID 588689); format: functional
Chain of Genome polyprotein (P29990 2492-3391 limits assumed): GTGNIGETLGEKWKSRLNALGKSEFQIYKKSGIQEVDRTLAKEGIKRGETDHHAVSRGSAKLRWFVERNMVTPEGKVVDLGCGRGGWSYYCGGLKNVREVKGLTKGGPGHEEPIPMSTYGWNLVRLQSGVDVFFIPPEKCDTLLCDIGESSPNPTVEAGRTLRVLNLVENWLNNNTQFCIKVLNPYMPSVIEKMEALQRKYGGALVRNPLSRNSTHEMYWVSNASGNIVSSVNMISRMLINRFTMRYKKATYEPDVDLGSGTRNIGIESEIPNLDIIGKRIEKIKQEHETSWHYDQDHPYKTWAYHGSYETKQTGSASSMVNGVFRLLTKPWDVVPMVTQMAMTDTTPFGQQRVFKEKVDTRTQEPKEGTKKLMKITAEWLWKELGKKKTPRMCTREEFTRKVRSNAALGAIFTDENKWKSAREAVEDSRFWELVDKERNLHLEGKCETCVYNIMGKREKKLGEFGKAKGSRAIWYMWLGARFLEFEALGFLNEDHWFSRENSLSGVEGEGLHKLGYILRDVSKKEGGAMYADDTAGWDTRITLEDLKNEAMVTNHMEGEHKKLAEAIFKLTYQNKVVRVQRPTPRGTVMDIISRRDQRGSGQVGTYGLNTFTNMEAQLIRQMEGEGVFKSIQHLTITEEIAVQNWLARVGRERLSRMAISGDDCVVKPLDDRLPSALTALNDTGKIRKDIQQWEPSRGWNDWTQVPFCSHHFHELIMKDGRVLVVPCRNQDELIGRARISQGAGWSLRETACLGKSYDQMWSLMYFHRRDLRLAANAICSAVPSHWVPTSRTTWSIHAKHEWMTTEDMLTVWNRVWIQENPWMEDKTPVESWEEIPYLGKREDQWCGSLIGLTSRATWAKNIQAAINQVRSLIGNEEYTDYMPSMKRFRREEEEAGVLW

[13] = biological target: T3, Tyrosyl-DNA phosphodiesterase 2 (Homo sapiens, UniProt O95551); test: potency against TDP2 phosphodiesterase activity – biochemical, epi absorbance, IC50, dose response (AID 743297)
T3 sequence (O95551 whole entry): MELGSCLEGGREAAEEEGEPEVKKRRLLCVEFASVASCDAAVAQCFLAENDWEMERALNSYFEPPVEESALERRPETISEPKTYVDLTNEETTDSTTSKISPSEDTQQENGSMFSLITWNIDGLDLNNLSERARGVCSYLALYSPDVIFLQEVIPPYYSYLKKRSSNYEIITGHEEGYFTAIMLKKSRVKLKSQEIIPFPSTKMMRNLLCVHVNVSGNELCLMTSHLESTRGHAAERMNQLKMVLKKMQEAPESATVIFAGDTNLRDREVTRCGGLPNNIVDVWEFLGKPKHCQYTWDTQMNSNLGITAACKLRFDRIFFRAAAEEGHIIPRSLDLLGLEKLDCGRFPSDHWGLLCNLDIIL

[14] = biological target: T4, Protein RecA (Mycobacterium tuberculosis, UniProt P9WHJ3); test: Fluorescence Cell-Free Homogeneous Dose Retest to Identify Inhibitors of RecA-Intein Splicing Activity. [Related pubchem assays (depositor defined):AID2097, AID2223, AID489010, AID492950]; format: functional
T4 sequence (P9WHJ3 whole entry): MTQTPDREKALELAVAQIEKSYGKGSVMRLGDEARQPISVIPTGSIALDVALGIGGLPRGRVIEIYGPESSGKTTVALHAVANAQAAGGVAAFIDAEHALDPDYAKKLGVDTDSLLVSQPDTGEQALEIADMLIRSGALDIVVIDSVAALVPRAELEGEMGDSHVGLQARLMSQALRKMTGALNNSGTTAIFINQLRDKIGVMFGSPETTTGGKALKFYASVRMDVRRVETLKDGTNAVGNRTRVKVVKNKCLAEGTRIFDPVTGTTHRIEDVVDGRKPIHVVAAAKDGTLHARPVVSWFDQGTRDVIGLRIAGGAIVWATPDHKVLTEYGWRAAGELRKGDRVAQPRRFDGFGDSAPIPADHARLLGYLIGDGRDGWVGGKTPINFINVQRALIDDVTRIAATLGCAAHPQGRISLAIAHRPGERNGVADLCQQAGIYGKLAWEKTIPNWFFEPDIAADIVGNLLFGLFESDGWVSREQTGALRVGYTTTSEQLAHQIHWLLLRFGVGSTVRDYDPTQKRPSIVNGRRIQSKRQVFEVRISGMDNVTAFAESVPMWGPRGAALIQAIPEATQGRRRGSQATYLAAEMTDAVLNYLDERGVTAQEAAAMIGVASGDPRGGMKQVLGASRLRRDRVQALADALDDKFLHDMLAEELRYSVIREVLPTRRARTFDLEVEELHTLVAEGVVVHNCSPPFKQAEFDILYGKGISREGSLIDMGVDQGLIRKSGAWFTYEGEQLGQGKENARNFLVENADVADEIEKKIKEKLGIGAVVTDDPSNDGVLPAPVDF

[15] = biological target: T5, Replicative DNA helicase DnaB (Mycobacterium tuberculosis, UniProt P9WMR3); test: DnaB intein splicing inhibitors, dose response, biochemical, cell-free fluorescence (AID 449749); format: functional
T5 sequence (P9WMR3 whole entry): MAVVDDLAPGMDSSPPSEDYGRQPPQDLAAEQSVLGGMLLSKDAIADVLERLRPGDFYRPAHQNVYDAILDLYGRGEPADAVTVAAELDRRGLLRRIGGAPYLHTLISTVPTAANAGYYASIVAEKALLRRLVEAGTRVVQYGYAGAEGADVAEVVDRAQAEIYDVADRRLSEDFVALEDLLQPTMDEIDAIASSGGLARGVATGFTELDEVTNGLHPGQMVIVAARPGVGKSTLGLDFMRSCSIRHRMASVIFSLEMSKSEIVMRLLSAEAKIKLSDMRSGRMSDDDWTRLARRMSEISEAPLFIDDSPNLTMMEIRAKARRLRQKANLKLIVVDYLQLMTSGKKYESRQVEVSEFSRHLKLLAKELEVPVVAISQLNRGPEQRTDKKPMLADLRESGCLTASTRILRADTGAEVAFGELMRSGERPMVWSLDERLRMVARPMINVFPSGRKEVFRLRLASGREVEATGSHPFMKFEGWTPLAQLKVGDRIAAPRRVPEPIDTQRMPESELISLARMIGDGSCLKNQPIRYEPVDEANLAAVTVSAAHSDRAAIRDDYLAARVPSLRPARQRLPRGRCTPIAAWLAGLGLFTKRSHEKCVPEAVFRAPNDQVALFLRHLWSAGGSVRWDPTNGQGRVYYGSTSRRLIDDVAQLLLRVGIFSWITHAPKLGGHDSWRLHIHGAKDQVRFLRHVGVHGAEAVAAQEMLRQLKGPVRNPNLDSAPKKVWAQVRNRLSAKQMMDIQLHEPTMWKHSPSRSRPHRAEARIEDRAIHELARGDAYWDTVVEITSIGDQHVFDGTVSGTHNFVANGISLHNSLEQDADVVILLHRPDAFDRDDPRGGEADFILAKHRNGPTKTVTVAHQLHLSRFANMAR

[16] = biological target: T6, Histone-lysine N-methyltransferase NSD2 (Homo sapiens, UniProt O96028); format: biochemical
T6 sequence (O96028 whole entry): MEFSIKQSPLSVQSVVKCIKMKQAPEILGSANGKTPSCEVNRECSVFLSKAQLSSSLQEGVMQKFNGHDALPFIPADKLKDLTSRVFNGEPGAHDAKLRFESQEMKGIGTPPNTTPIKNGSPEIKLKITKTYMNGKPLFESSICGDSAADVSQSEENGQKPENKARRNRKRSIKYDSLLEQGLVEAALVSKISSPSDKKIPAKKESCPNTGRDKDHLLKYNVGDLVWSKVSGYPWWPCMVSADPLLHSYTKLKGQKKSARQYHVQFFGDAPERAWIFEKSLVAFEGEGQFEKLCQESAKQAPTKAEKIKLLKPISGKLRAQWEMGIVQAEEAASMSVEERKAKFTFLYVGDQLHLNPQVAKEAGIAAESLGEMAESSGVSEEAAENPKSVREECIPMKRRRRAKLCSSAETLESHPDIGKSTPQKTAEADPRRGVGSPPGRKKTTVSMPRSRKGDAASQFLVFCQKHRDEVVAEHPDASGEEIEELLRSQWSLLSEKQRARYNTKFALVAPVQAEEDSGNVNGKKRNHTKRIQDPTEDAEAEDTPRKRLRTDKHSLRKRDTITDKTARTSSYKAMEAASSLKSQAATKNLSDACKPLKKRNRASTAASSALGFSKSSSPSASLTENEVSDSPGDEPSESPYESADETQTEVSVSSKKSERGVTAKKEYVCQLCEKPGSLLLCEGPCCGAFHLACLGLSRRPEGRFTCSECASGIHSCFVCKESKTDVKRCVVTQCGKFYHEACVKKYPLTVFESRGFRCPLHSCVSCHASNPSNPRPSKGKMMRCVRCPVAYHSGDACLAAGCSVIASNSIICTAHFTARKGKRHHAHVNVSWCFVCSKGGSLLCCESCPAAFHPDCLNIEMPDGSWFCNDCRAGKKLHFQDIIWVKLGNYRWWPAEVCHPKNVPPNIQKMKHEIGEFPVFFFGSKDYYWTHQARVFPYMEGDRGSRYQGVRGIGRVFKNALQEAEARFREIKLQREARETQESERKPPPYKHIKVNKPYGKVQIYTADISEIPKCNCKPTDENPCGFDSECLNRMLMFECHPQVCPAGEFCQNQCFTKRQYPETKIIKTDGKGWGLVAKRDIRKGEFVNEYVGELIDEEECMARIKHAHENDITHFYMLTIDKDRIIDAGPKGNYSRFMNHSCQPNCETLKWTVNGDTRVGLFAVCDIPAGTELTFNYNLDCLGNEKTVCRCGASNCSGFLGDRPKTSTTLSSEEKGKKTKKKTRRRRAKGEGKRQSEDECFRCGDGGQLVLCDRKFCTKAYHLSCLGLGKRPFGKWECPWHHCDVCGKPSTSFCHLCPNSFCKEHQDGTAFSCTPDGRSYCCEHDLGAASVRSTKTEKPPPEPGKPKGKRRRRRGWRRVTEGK

[17] = toxicity toward HepG2 liver cells – cell-based, plate reader, cherry-pick, antagonist series, cytotoxicity control, dose response (AID 743416); format: functional
[18] = blockade of melanocortin 4 receptor signaling – cell-based, plate reader, cherry pick, counter-screen for LGR2 antagonist project, dose response (AID 743444); format: functional;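 further: transfected HEK 293 cells stimulated with alpha-MSH peptide; potency of inhibitors of the alpha-MSH evoked signal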
[19] = A549 cell cytotoxicity, dose response, cytotoxicity control, plate reader, cherry-pick, antagonist series (AID 743412); format: functional, cell-based
[20] = blockers of bursicon-stimulated LGR2 cAMP reporter – cell-based, HEK293, CRE-luciferase reporter, cherry pick, set 2, dose response (AID 743343); format: functional;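 further: transfected cells were stimulated with diluted bursicon conditioned medium after compound addition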

Cc1ccc(C)c(N2CCN(S(=O)(=O)c3c(C)noc3/C=C/N(C)C)CC2)c1
EC50 [1]: 32.6 µM (active) | IC50 [2]: > 122 µM (inactive) | EC50 [3]: 26.5 µM (active)

CCCCCC(=O)NC(=S)NC1C2CC3CC(C2)CC1C3 (configuration not stated)
IC50 [4]: > 94.1 µM (inactive) | EC50 [5]: 11.5 µM (active) | EC50 [6]: 27.9 µM (active) | EC50 [7]: 3.42 µM (active)

COCCCN1C(=O)C(O)=C(C(=O)c2ccccc2)C1c1ccc2c(c1)OCO2 (configuration not stated)
Ki [8]: 29.6 µM (inactive)

Cc1oc2cc(O)cc(O)c2c(=O)c1-c1ccc2c(c1)OCCCO2
Ki [8]: > 66.7 µM (inactive)

C[C@H](CO)N1C[C@H](C)[C@@H](CN(C)Cc2ccccc2)Oc2ccc(NC(=O)Nc3ccc(C(F)(F)F)cc3)cc2CC1=O
AC50 [9]: 9.3 µM (active) | AC50 [10]: 46.6 µM (active) | AC50 [11]: 51.8 µM (active)

COc1cccc(C(c2c(C)nn(-c3ccccc3)c2O)c2c(C)nn(-c3ccccc3)c2O)c1OC
IC50 [12]: 61.1 µM (active) | IC50 [13]: 24.7 µM (inactive) | EC50 [14]: 0.81 µM (active) | AC50 [15]: 1.25 µM (active)

O=C1Nc2c(Cl)cccc2C1=O
AC50 [16]: 9.86 µM (active)

Cc1ccc(N=C(S)NNC(=O)c2ccccc2O)c(C)c1
IC50 [2]: > 122 µM (inactive)

N#C[C@@H]1[C@H](c2ccc(C#Cc3ccccc3F)cc2)[C@@H](CO)N1C(=O)C1CCCC1
AC50 [17]: 39.6 µM (active) | AC50 [18]: 6.34 µM (active) | AC50 [19]: > 52 µM (inactive) | AC50 [20]: 8.84 µM (active)
